Results reported in patent US5270311A, “[1,2,4]-Triazolo[1,5-a]and pyrazolo[2,3-a][1,3,5]triazine derivatives” (Imperial Chemical Industries PLC, priority 1990, dated 1993).
Where two headings read alike, the source gives them in different places.

How the values were obtained:
[1] = system: vasodilatation response during twitch contraction of skeletal muscle; assay: Anaesthetised cat exercise hyperaemia test; format: in vivo; settings: Felis catus, iv, 20 min, hind limb contraction at 3 Hz for 20 minutes, read-out: dose producing significant inhibition of vasodilatation during exercise
Method: (f) Anaesthetised cat exercise hyperaemia test
This test involves assessment of the effect of a test compound to antagonise the vasodilatation response which occurs during twitch contraction of skeletal muscle. The vasodilation is mediated partly by the release of endogenous adenosine from the contracting skeletal muscle.
Cats (2.4-3.6 kg) are anaesthetised with sodium pentobarbitone (50 mg.kg^-1 ip). The following blood vessels are catheterized: left jugular vein (for infusion of anaesthetic, at approximately […] as a 6 mg.ml^-1 solution in isotonic saline), right external jugular vein (for administration of drugs and test compounds), right common carotid artery (for measurement of systemic arterial blood pressure and pulse rate) and right brachial artery (for withdrawal of blood).
Blood flow to the left hind limb is measured with an electromagnetic flow probe around the left external iliac artery. The whole of the left hind limb is made to contract at 3 Hz for 20 minutes duration by stimulating the sciatic and femoral nerves. Active tension produced by the extensor digitorum longus and peroneous longus muscles is measured isometrically with a force transducer. […] Test compounds are assessed for their ability to reduce the vasodilatation during skeletal muscle contraction. […]

A2 Adenosine receptor = target: T1, A2 Adenosine receptor (Rattus norvegicus, UniProt P30543); assay: A2 Adenosine receptor affinity test ([3H]-NECA displacement, PC12 membranes); format: binding
T1 construct: membrane preparations derived from the rat phaeochromocytoma cell line PC 12; endogenous in cells; host or cells: PC 12 (rat phaeochromocytoma; cell line available from the Beatson Institute, Glasgow)
T1 sequence (P30543 whole entry): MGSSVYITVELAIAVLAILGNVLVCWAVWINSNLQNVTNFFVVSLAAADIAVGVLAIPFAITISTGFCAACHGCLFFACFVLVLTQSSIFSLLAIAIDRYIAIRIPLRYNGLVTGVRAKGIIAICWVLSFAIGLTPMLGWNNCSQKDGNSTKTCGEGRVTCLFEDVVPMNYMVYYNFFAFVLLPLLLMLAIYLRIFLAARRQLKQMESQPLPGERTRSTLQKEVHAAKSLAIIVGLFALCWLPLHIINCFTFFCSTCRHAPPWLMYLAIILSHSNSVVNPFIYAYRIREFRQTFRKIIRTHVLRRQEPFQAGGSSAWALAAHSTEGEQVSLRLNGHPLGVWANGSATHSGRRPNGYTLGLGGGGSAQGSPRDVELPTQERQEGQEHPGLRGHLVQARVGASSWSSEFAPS
Method: The separated cells are then suspended in hypotonic solution (distilled water), allowed to stand on ice for 30 minutes and are then carefully homogenized using a standard high-speed homogeniser with periodic ice-cooling to obtain a fine suspension. […] A1280). […] After 20 minutes, the reaction is terminated by dilution with ice-cold buffer and transfer onto ice. The material obtained containing the cell membranes is recovered by centrifugation and washed by resuspension in buffer and recentrifugation. The pellet produced is then resuspended in ice-cold buffer using a hand-driven homogenizer. The resultant membrane suspension is frozen and stored under liquid nitrogen until required. […] After incubation, the samples are rapidly filtered over glass-fibre mats and the filter mats are washed to remove non-receptor-bound radioligand. Receptor-bound radioligand entrapped on the filter mats is then determined by liquid scintillation counting. Filtration and washing are carried out using a conventional vacuum filtration cell harvester. The specific binding (defined as the difference between the total binding and the non-specific binding) in the presence of the particular test compound is determined and compared with the control value.

[2] = target: T2, adenosine receptor known as A2; assay: Guinea-pig Aortic Constriction Test; settings: antagonism of adenosine relaxation of phenylephrine constricted guinea-pig aortic ring; read-out: pA2 (converted)
T2 construct: guinea pig thoracic aorta (from Dunkin Hartley strain, 250-400 g males); from tissue; host or cells: thoracic aortic rings, Dunkin Hartley guinea pig
T2 sequence (P29275 whole entry): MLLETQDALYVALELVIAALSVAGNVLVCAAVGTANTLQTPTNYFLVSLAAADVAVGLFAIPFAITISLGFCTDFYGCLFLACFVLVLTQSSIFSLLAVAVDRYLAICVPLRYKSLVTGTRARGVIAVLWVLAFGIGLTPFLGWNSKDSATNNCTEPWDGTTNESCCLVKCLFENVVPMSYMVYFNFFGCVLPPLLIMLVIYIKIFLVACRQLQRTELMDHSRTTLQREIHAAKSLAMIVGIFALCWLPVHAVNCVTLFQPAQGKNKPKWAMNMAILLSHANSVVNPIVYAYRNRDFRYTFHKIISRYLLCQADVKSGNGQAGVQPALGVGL
Method: (b) Guinea-pig Aortic Constriction Test
The aortic ring preparation is obtained as follows: Sections (3-5 mm) of guinea pig thoracic aorta (from Dunkin Hartley strain, 250-400 g males) are mounted in organ baths containing oxygenated Krebs solution (95% O2 : 5% CO2) at 37° C. [The nucleoside transport inhibitor, dipyridamole (10 μM) is present in the Krebs solution]. The isometric tension development is recorded and the tissue placed under a resting tension of 1 g and allowed to equilibrate for 1 hour. The aortic ring preparation is then sensitised to 10^-5 M phenylephrine. Erythro-9-(2-hydroxy-3-nonyl)adenine (EHNA) (10 μM) is added to the preparation and after 10 minutes the tissue is constricted to approximately 50% maximum by adding 3×10^-6 M phenylephrine. Adenosine is next added cumulatively (10^-7 M to 10^-3 M) and the evoked relaxation is measured. After washout for 20 minutes, a 10^5 M solution of the test compound in DMSO (maximum 1% by volume) diluted with Krebs solution is added and left to equilibrate for 30 minutes. Twenty minutes into the equilibration period further EHNA (10 μM) is added to the preparation and 10 minutes later phenylephrine (3×10^-6 M) is introduced to produce constrictive tone again. A repeat dose response curve to adenosine is then carried out followed by washout.
Significant antagonist activity in this assay is indicated by a DR of >2.

[3] = target: T3, adenosine receptor known as A1 (Cavia porcellus, UniProt P47745); assay: Guinea-pig Atrial Bradycardic Test; settings: antagonism of bradycardic effect of 2-chloroadenosine, beating guinea-pig atrial pair; read-out: pA2 (converted)
T3 construct: Atrial pairs are obtained from guinea-pigs (Dunkin Hartley strain, 250-400 g males); from tissue; host or cells: spontaneously beating atrial pairs, Dunkin Hartley guinea pig
T3 sequence (P47745 1-326): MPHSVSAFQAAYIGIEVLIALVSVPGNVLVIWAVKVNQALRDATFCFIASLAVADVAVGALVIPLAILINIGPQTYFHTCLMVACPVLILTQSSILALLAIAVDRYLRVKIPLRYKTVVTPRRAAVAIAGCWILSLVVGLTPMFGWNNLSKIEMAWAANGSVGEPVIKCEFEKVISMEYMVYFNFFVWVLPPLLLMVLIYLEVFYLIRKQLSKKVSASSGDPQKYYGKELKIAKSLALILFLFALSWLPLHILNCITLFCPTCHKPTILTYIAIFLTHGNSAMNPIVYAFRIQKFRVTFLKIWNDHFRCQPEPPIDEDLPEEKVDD
Method: (c) Guinea-pig Atrial Bradycardic Test
The atrial pair preparation may be obtained as follows: Atrial pairs are obtained from guinea-pigs (Dunkin Hartley strain, 250-400 g males) and mounted in organ baths containing oxygenated Krebs buffer solution (95% O2; 5% CO2) at 37° C. The spontaneously beating atria are then placed under a resting tension of 1 g and allowed to equilibrate for 50 minutes with continuous overflow. Overflow is then stopped and adenosine deaminase (1 Unit/ml) added to prevent the accumulation of endogenously produced adenosine. After equilibration for 15 minutes, a cumulative dose response curve to the adenosine mimetic, 2-chloroadenosine(10^-8 M to 10^-4 M) is administered to produce a maximal slowing of atrial rate. After washout during 30 minutes, adenosine deaminase is readministered to the bath which is allowed to equilibrate for 15 minutes. A 10^-5 M solution of the test compound in DMSO is then added to the bath which is left to incubate for 30 minutes. Any effect on the beating rate due to the test compound is noted before the dose response curve to 2-chloroadenosine is repeated. Compounds which are adenosine antagonists attenuate the 2-chloroadenosine response.
Test compounds are assessed by comparing dose response curves to 2-chloroadenosine alone with those obtained in the presence of the compound. […]

[4] = system: fall in diastolic blood pressure produced by 2-chloroadenosine; assay: Anaesthetised cat blood pressure Test; format: in vivo; settings: i.v., Schild plot, 2-chloroadenosine 30 mm Hg fall in diastolic blood pressure
Method: (d) Anaesthetised cat blood pressure Test This test assesses the ability of a test compound to antagonise the fall in diastolic blood pressure produced by administration of the adenosine mimetic, 2-chloroadenosine. […] The blood gas status and pH are determined, and are maintained within physiological limits, before administration of 2-chloroadenosine. […] A solution of the test compound in a mixture of 50% v/v polyethylene glycol (PEG) 400 and 0.1M sodium hydroxide is then administered i.v. and after 15 minutes the DRC to 2-chloroadenosine is determined. This procedure is repeated twice with blood gases and pH being monitored and maintained within physiological limits between each DRC. […] From this plot a KB value is determined.

[5] = system: adenosine induced decrease in blood pressure; assay: Conscious cat oral modification of Test (d); format: in vivo; settings: conscious cats, at several times the minimum effective dose
Source text: The above Test (d) may conveniently be modified to allow evaluation of orally administered test compounds by administering the test compound to conscious cats with indwelling arterial and venous catheters and measuring the effect in preventing an adenosine induced decrease in blood pressure.

[6] = system: actions of adenosine in lowering heart rate and increasing vasodilation (hind-limb perfusion pressure); assay: Anaesthetised dog Test; format: in vivo; settings: Schild plot, antagonism of vasodilator response to adenosine
Method: (e) Anaesthetised dog Test
This test involves the assessment of the effects of a test compound on antagonising the actions of adenosine in lowering heart rate and increasing vasodilation (as measured by a fall in hind-limb perfusion pressure).
Beagles (12-18 kg) are anaesthetised with sodium pentobarbitone (50 mg/kg, iv). […] Both vagi, the right femoral and sciatic nerves are ligated and severed. […] The right leg is tied just below the ankle. Xamoterol (1 mg/kg) is then administered to the animal to stabilise heart rate at a high level and nitrobenzylthioinosine (NBTI, 0.5 mg/kg) to inhibit the uptake of adenosine. The animal is sensitised to adenosine during the equilibration time following NBTI by carrying out a dose response curve (DRC). During this time any blood gas or pH imbalance is corrected. A control DRC is performed followed-d by up to three DRC's after cumulative administration of the test compound (as described in (d) above). […] Similarly, blood gases and pH are maintained within physiological limits throughout the evaluation.
From this plot a KB value is determined for antagonism of heart rate response and vasodilator response to adenosine.

IC50 (A2 Adenosine receptor; displacement of [3H]-NECA, rat PC 12 cell membranes, 30° C., 90 minutes)	SMILES	minimal effective dose [1]	IC50 (A2 Adenosine receptor)	Kb [2]	Kb [3]	KB [4]	sign of overt toxicity [5]	KB [6]
	Cn1c(=O)c2[nH]cnc2n(C)c1=O [1,3-dimethylxanthine, reference compound]	10 mg/kg						
	Nc1nc(Oc2ccccc2)nc2nc(-c3ccco3)nn12 [Example 1, 7-amino-2-(2-furyl)-5-phenoxy-[1,2,4]triazolo[1,5-a][1,3,5]triazine]	0.1 to 1 mg/kg	~10 nM	39.8 nM	631 nM	30 µg/kg	without any sign of overt toxicity	30 µg/kg
~3.16 nM	Nc1nc(Oc2ccccc2)nc2cc(-c3ccco3)nn12 [Example 119, 7-amino-2-(2-furyl)-5-phenoxy-pyrazolo[2,3-a][1,3,5]triazine]			50.1 nM	1000 nM	700 µg/kg		1100 µg/kg
